# Assay results published in patent US20250339567A1, “COMPOUNDS WITH IMPROVED PHARMACOKINETICS FOR IMAGING AND THERAPY OF CANCER” (priority 2019, published 2025).
# “Also recorded” adds a separate entry of the source. Starred links: 1 amine or outer side, 2 acyl side, 3 side chain; linkers in the order of their positions; H or OH if unused. Non-standard residues stand in square brackets, D forms with d. Residues, ends and D or L forms follow the SMILES beside them. *: point of attachment. DOTAGA = O=C(O)CN1CCN(CC(=O)O)CCN(C(CCC(=O)*)C(=O)O)CCN(CC(=O)O)CC1; Benzoyl(4-SiFtBu2) = CC(C)(C)[Si](F)(c1ccc(C(=O)*)cc1)C(C)(C)C; d(γGlu) = O=C(O)[C@@H](CCC(=O)[*:2])N[*:1]; Sta = CC(C)C[C@H](N)[C@@H](O)CC(=O)O; Bta = N[C@@H](Cc1csc2ccccc12)C(=O)O; X1 = O=C(CN1CCC(N[*:1])CC1)[*:2]; X2 = NCCNCC(CNCCN)C(=O)*; dDap = NC[C@@H](N)C(=O)O; CO = O=C([*:1])[*:2]
# Assays:
# GRPR = target: T1, GRPR (Homo sapiens, UniProt P30550); assay: Determination of GRPR affinity (IC50), competition with [D-3-[125I]I-Tyr6]MJ9 on PC-3 cells; type: binding; conditions: 2 h, r.t.
# T1 construct: endogenous in cells; host or cells: PC-3 cells
# T1 sequence (P30550 whole entry): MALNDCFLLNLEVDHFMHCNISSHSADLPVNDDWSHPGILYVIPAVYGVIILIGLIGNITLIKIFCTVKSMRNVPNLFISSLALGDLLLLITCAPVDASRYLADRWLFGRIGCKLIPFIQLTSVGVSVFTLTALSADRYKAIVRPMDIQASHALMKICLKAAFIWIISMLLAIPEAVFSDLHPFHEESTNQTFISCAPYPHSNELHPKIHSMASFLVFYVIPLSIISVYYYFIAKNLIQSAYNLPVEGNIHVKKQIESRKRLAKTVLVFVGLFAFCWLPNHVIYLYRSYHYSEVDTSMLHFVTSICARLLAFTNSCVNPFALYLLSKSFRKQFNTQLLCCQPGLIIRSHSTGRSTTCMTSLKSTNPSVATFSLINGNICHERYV
# Protocol: The reference ligand for IC50 studies ([D-3-[^125I]I-Tyr^6]MJ9) is prepared according to a previously published procedure. Briefly, 0.2 mg of [D-Tyr^6]MJ9 are dissolved in 20 μL Tracepur water and 280 μL TRIS buffer (25 mm TRIS HCl, 0.4 M NaCl, pH=7.9). After addition of the solution to a vial containing 150 μg Iodo-Gen® (1,3,4,6-Tetrachloro-3α,6α-diphenylglycouril, surface-bound), 5.0 μL (16 MBq) [^125I]Nal(74 TBq/mmol, 3.1 GBq/mL, 40 mM NaOH, Hartmann Analytic, Braunschweig, Germany) are added.
# The GRPR-positive PC-3 cells are cultured in Dublecco modified Eagle medium/Nutrition Mixture F-12 with Glutamax-I (1:1) (Invitrigon), supplemented with 10% fetal calf serum and maintained at 37° C. in a humidified 5% CO2 atmosphere.
# After removal of the culture medium, the cells are washed once with 500 μL of HBSS (Hank's balanced salt solution, Biochrom, Berlin, Germany, with addition of 1% bovine serum albumin (BSA)) and left in 200 μL HBSS (1% BSA) for 9 min at room temperature for equilibration. Next, 25 μL per well of solutions, containing either HBSS (1% BSA) as control or the respective ligand in increasing concentration (10^−10 M-10^−4 M in HBSS), are added with subsequent addition of 25 μL of [D-3-[^125I]I-Tyr^6]MJ9 (2.0 nM) in HBSS (1% BSA).
# All experiments are performed in triplicate for each concentration. After 2 h incubation at room temperature, the experiment is terminated by removal of the medium and consecutive rinsing with 300 μL of HBSS. The media of both steps are combined in one fraction and represent the amount of free radiolabeled reference. Afterwards, the cells are lysed with 300 μL of 1 M NaOH for at least 15 min and united with the 300 μL NaOH of the following washing step. Quantification of bound and free radiolabeled reference is accomplished in a γ-counter.
# IC50 determination for each ligand was repeated twice.
# PC-3 cells = assay: Internalization into PC-3 cells; type: cell-based; conditions: c = 1 nM, 1 h, 37° C., corrected for non-specific binding (10^-3 M [natLu]RM2)
# Protocol: For internalization studies, PC-3 cells are harvested 24±2 h before the experiment and seeded in 24-well plates (1.5×10^5 cells/well, 1 mL). Subsequent to the removal of the culture medium, the cells are washed once with 500 μL DMEM/F-12 (5% BSA) and left to equilibrate at 37° C. for at least 15 min in 200 μL DMEM/F-12 (5% BSA). […] Next, 25 μL of the ^125I/^177Lu-labeled GRPR ligand (10 nm) is added and the cells are incubated at 37° C. for 60 min.
# The experiment is terminated by placing the 24-well plate on ice for 1 min and consecutive removal of the medium. Each well is rinsed with 300 μL ice-cold PBS and the fractions from these first two steps are combined, representing the amount of free radiolabeled reference. Removal of surface bound activity is accomplished by incubation of the cells with 300 μL of ice-cold Acid Wash solution (0.02 M NaOAc, pH=5.0) for 10 min at room temperature and rinsed again with 300 μL of ice-cold PBS. The internalized activity is determined by incubation of the cells in […] NaOH (1 M) and the combination with the fraction of a subsequent washing step with 300 μL NaOH (1 M).
# Each experiment (control and blockade) is performed sixfold. Free, surface bound and internalized activity is quantified in a γ-counter. Data is corrected for non-specific internalization.
# [1] = test system: PC-3 tumor-bearing CB17-SCID mice; assay: Biodistribution in PC-3 tumor-bearing CB17-SCID mice; type: in vivo
# Protocol: All animal experiments were conducted in accordance with general animal welfare regulations in Germany (German animal protection act, as amended on 18 May 2018, Art. 141 G v. 29.3.2017 | 626, approval no. ROB-55.2-2532.Vet_02-18-109) and the institutional guidelines for the care and use of animals. To establish tumor xenografts, PC-3 cells (5×10^6 cells per 200 μL) were suspended in a 1:1 mixture (v/v) of Dulbecco's modified eagle's medium/Ham's F-12 (DMEM/F-12) with Glutamax-I (1:1) and Cultrex® Basement Membrane Matrix Type 3 (Trevigen Inc., Gaithersburg, MD, USA) and inoculated subcutaneously onto the right shoulder of 6-10 weeks old female CB17-SCID mice (Charles River Laboratories International Inc., Sulzfeld, Germany). Mice were used for experiments when tumor volume was 125-500 mm^3 (2-3 weeks after inoculation).
# Approximately 1-5 MBq ([…]) of the radiolabeled GRPR antagonists were injected into the tail vein of PC-3 tumor-bearing mice and sacrificed at 1, 4 or 24 h p.i. (n=4). Selected organs were removed, weighted and measured in a γ-counter (Perkin Elmer, Waltham, MA, USA).
# [2] = Plasma studies: metabolic stability in vitro in murine plasma (radio RP-HPLC); type: in vitro ADME; conditions: 37° C.
# Protocol: Metabolic stability in vitro was determined applying a procedure published by Linder et al. that was slightly modified. Immediately after labeling, human (200 μL) or murine (100 μL) plasma was added and the mixture was incubated at 37° C. for 72±2 h (or 6±0.5 h). Proteins were precipitated by treatment with ice-cold EtOH (150 μL [human], 100 μL [murine]) and ice-cold MeCN (450 μL [human], 300 μL [murine]), followed by centrifugation for 20 min at 13000 rpm. The supernatants were decanted and further analyzed using radio RP-HPLC.
# Therefore, only 100 μL of murine plasma was added to the tracer solution (final volume of 200 μL) immediately after labeling was finished. According to Linder et al. (Bioconjugate Chem. 20, 1171-1178 (2009)), metabolism is more rapid in murine than in human plasma for which reason the experiment was terminated after incubation at 37° C. for 6±0.5 h (FIGS. 5 and 6). Nevertheless, due to a smaller volume the murine mixture was additionally examined after incubation at 37° C. for 72±2 h (FIGS. 7 and 8).
# [3] = Plasma studies: metabolic stability in vitro in human plasma (radio RP-HPLC); type: in vitro ADME; conditions: 37° C.
# In short: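 Radiotracer incubated in human or murine plasma at 37° C. immediately after labeling, for 72±2 h or 6±0.5 h. Proteins precipitated with ice-cold EtOH and MeCN and centrifuged. Supernatant analysed by radio RP-HPLC.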
# [4] = n-Octanol-PBS distribution coefficient, log D7.4; type: physicochemical; conditions: for log D7.4 (n = 6), ^99mTc-labeled: n-octanol/PBS pH 7.4
# Protocol: Approximately 1 MBq of the labeled tracer was dissolved in 1 mL of a 1:1 mixture (v/v) of phosphate buffered saline (PBS, pH=7.4) and n-octanol in an Eppendorf tube. After vigorous mixing of the suspension for 3 min at room temperature, the vial was centrifuged at 9000 rpm for 5 min (Biofuge 15, Heraus Sepatech, Osterode, Germany) and 200 μL aliquots of both layers were measured in a γ-counter. The experiment was repeated at least four times.
# [5] = human plasma, 72±2 h, FIGS. 1-4
# [6] = IC50 [nM] ± SD (n = 3), Table 5, non-labeled N4 ligands, [D-3-[125I]I-Tyr6]MJ9 (c = 0.2 nM)
smiles,measurement,setting,value
"CC(C)C[C@H](NC(=O)C[C@H](O)[C@H](CC(C)C)NC(=O)[C@H](Cc1c[nH]cn1)NC(=O)CNC(=O)[C@@H](NC(=O)[C@H](C)NC(=O)[C@H](Cc1c[nH]c2ccccc12)NC(=O)[C@H](CCC(N)=O)NC(=O)[C@@H](Cc1ccc(O)c(I)c1)NC(=O)CN1CCC(N)CC1)C(C)C)C(N)=O [[D-3-I-Tyr^6]MJ9, reference compound]",IC50,"GRPR; IC50 ± SD (n = 3), Table 3, [D-3-[125I]I-Tyr6]MJ9 (c = 0.2 nM), HBSS + 1% BSA",1.33 ± 0.36 nM
same,IC50 ± SD (n = 3),"GRPR; Table 3, [D-3-[125I]I-Tyr6]MJ9 (c = 0.2 nM), HBSS + 1% BSA",particularly high affinity
same,"Specific internalization (mean ± SD, n = 6)",PC-3 cells,3.57 ± 0.57 % of the used activity
"CC(C)C[C@H](NC(=O)C[C@H](O)[C@H](CC(C)C)NC(=O)[C@H](Cc1c[nH]cn1)NC(=O)CNC(=O)[C@@H](NC(=O)[C@H](C)NC(=O)[C@H](Cc1c[nH]c2ccccc12)NC(=O)[C@H](CCC(N)=O)NC(=O)[C@@H](Cc1ccccc1)NC(=O)CN1CCC(NC(=O)CN2CCN(CC(=O)O)CCN(CC(=O)O)CCN(CC(=O)O)CC2)CC1)C(C)C)C(N)=O [RM2, DOTA-Pip-D-Phe-Gln-Trp-Ala-Val-Gly-His-Sta-Leu-NH2]",tumor retention,"[1]; 177Lu-labeled, 24 h p.i., 100 pmol, FIGS. 11, 18, listed as [^177Lu]RM2",high amounts; also recorded: higher tumor retention than the other derivatives of this series
same,"metabolite, first-eluting peak in chromatogram",[2]; 6±0.5 h,2%
same,"metabolite, second peak in chromatogram",[2]; 6±0.5 h,2%
same,"metabolite, third peak in chromatogram",[2]; 6±0.5 h,4%
same,remaining intact tracer in chromatogram,"[2]; 6±0.5 h, FIGS. 5-6",92%
same,remaining intact tracer in chromatogram,"[2]; 72±2 h, FIGS. 7-8",67%
same,Amount of intact tracer after incubation in human plasma for 72 ± 2 h (n = 2),"[3]; Table 1C, 177Lu-labeled, 72 ± 2 h, in % (unit assumed)",33.5 ± 2.7
same,"amount of intact tracer (in vitro stability), mean ± SD","[3]; human plasma, 72±2 h",33.5±2.7%
same,"metabolite, first-eluting peak in chromatogram",[3]; [5],54%
same,"metabolite, second peak in chromatogram",[3]; [5],9%
same,remaining intact tracer in chromatogram,"[3]; human plasma, 72±2 h, single chromatogram (FIGS. 1-4)",36%
CC(C)C[C@H](NC(=O)C[C@H](O)[C@H](CC(C)C)NC(=O)[C@H](Cc1c[nH]cn1)NC(=O)CNC(=O)[C@@H](NC(=O)[C@H](C)NC(=O)[C@H](Cc1c[nH]c2ccccc12)NC(=O)[C@H](CCO)NC(=O)[C@@H](Cc1ccccc1)NC(=O)CN1CCC(NC(=O)C(CNCCN)CNCCN)CC1)C(C)C)C(N)=O [N4-[Hse^7]MJ9],IC50,GRPR; [6],6.97 ± 1.84 nM
same,tumor-to-background ratios,"[1]; mouse, in vivo",highest
same,"log D7.4 (n = 6), ^99mTc-labeled",[4],−1.26 ± 0.02
CC(C)C[C@H](NC(=O)C[C@H](O)[C@H](CC(C)C)NC(=O)[C@H](Cc1c[nH]cn1)NC(=O)CNC(=O)[C@@H](NC(=O)[C@H](C)NC(=O)[C@H](Cc1c[nH]c2ccccc12)NC(=O)[C@H](CCC(N)=O)NC(=O)[C@@H](Cc1ccccc1)NC(=O)CN1CCC(NC(=O)CN2CCC(NC(=O)CN3CCC(NC(=O)[C@@H](CC(=O)O)NC(=O)[C@@H](CNC(=O)CCC(C(=O)O)N4CCN(CC(=O)O)CCN(CC(=O)O)CCN(CC(=O)O)CC4)NC(=O)[C@@H](CNC(=O)c4ccc([Si](F)(C(C)(C)C)C(C)(C)C)cc4)NC(=O)CC[C@@H](NC(=O)N[C@H](CCC(=O)O)C(=O)O)C(=O)O)CC3)CC2)CC1)C(C)C)C(N)=O (stereo partly drawn) [GT52] ({dE-CO-d(γGlu)}-[dDap](Benzoyl(4-SiFtBu2))[dDap](DOTAGA)[dD][X1][X1][X1][dF]QWAVGH[Sta]L-NH2),"IC50 [nM], ^natLu-labeled (n = 3)","GRPR; Table 6, natLu-labeled, [D-3-[125I]I-Tyr6]MJ9 (c = 0.2 nM)",comparable range
same,"log D7.4 (n = 6), ^177Lu-labeled","[4]; Table 6, 177Lu-labeled Bombesin-SiFA compounds",−2.05 ± 0.08
CC(C)C[C@H](NC(=O)C[C@H](O)[C@H](CC(C)C)NC(=O)[C@H](Cc1c[nH]cn1)NC(=O)CNC(=O)[C@@H](NC(=O)[C@H](C)NC(=O)[C@](C)(Cc1c[nH]c2ccccc12)NC(=O)[C@H](CCC(N)=O)NC(=O)[C@@H](Cc1ccccc1)NC(=O)CN1CCC(NC(=O)C(CNCCN)CNCCN)CC1)C(C)C)C(N)=O [N4-[α-Me-Trp^8]MJ9],tumor accumulation at 4 h p.i. compared to 1 h p.i.,"[1]; mouse, in vivo",enhanced tumor accumulation compared to 1 h p.i.
same,"log D7.4 (n = 6), ^99mTc-labeled",[4],−1.29 ± 0.08
CC(C)C[C@H](NC(=O)C[C@H](O)[C@H](CC(C)C)NC(=O)[C@H](Cc1c[nH]cn1)NC(=O)CNC(=O)[C@@H](NC(=O)[C@H](C)NC(=O)[C@H](Cc1csc2ccccc12)NC(=O)[C@H](CCC(N)=O)NC(=O)[C@@H](Cc1ccccc1)NC(=O)CN1CCC(NC(=O)[C@H](CC(=O)O)NC(=O)C(CNCCN)CNCCN)CC1)C(C)C)C(N)=O [N4-asp-[Bta^8]MJ9] (X2-D[X1][dF]Q[Bta]AVGH[Sta]L-NH2),IC50,GRPR; [6],3.36 ± 0.42 nM
same,"log D7.4 (n = 6), ^99mTc-labeled",[4],−1.33 ± 0.06
